Experimental data taken from patent publication US4822791A, “Pharmaceutical compositions of-2,2-1,1-[bis-2,2'-(3,1-benzoxazin-4-one)9 ethylenes” (priority 1984, dated 1989).
Read-outs that look alike come from different tables or passages of the source.

Columns and labels:
[1] = tested on: passive cutaneous anaphylaxis (PCA); test: Anti-passive cutaneous anaphylaxis (PCA) activity in rats (Test Example 2); type: in vivo, Wistar strain rats; details: Rattus norvegicus, N 10; for inhibition in vivo at 10 mg/kg: 10 mg/kg PO; for inhibition in vivo at 50 mg/kg: 50 mg/kg PO; for inhibition in vivo at 100 mg/kg: 100 mg/kg PO
Summary of the method: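 Antiserum from Wistar rats sensitized with ovalbumin (alum plus B. pertussis adjuvant) was diluted 16- or 32-fold and injected into dorsal skin of naive rats, which were held 48 h. Compound was given orally 1 h before i.v. ovalbumin plus Evans blue.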

[2] = tested on: passive cutaneous anaphylaxis (PCA); test: Anti-passive cutaneous anaphylaxis activity (PCA) in rats (Test Example 9); type: in vivo; details: Rattus norvegicus, po, 50 mg/kg, 10 animals
Summary of the method: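 Antiserum came from Wistar rats sensitized with ovalbumin (aluminium hydroxide plus B. pertussis adjuvant) and bled at day 14. It was diluted 12- and 24-fold and injected into the dorsal skin of naive rats 48 h before challenge.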

[3] = read-out: Average Inhibition Rate (%) Antiserum Dilution: × 16
[4] = read-out: Average Inhibition Rate (%) Antiserum Dilution: × 32

What does the source list for `O=C(Nc1ccccc1C(=O)O)C(=Cc1ccccc1)C(=O)Nc1ccccc1C(=O)O` [Compound 11, 2,2'-[(1,3-dioxo-2-phenylmethylene-1,3-propanediyl)diimino]bisbenzoic acid]?
inhibition in vivo at 10 mg/kg [1, 3]: 23.2%; inhibition in vivo at 10 mg/kg [1, 4]: 33.1%; inhibition in vivo at 50 mg/kg [1, 3]: 41.4%; inhibition in vivo at 50 mg/kg [1, 4]: 39.1%; inhibition in vivo at 100 mg/kg [1, 3]: 52.9%; inhibition in vivo at 100 mg/kg [1, 4]: 53.5%; inhibition in vivo at 50 mg/kg ([2]; read-out: Inhibition, Anti-serum Dilution: × 12): 20.8%; inhibition in vivo at 50 mg/kg ([2]; read-out: Inhibition, Anti-serum Dilution: × 24): 23%
